# Results as given in patent US8785594B2, “Glycoproteins and glycosylated cells and a method for the preparation of the same” (Glycom A/S, priority 2007, dated 2014).
# Marks after values point to notes of the source that are not given here.
# Experiments:
# Format in all cases: cell-based
# B16.BL6 melanoma cells [1] = assay: Flow cytometry with FITC-labelled GS1B4 (Example 13)
# Procedure: The alpha-Gal trisaccharide probe (9) was dissolved in HBSS (Gibco Invitrogen, Taastrup, Denmark) and passed through a sterile filter (0.2 μm Supor® Acrodisc® 13, Gelman Sciences, Ann Arbor, Mich.). Three different concentrations of the alpha-Gal trisaccharide-carbamate (9) were made. Five small flasks were prepared with 606 μL of cell suspension containing a total of 10^6 B16.BL6 cells in addition to 4 mL of one of the conjugate solutions. Each flask contained a total volume of 4.6 mL. The cells were incubated with the “Glycom conjugate” for either 3 or 1.5 hours at 37° C.
# After conjugation, the supernatant from each flask was transferred to separate 10 mL tubes (TPP, Trasadingen Switzerland). Cells were washed twice by adding PBS to the flasks and immediately removing it again. The cells were harvested with Cell Dissociation Solution (2 mL per flask) (Sigma-aldrich, Saint Louis, Mo.). After 5 minutes, cells were transferred to the 10 mL test tubes. The cells were centrifuged for 5 minutes at 300 G at 20° C. and resuspended in 0.5 mL of PBS. Cell concentration and viability was determined by microscopic evaluation of trypan blue stained cell samples.
# One hundred μL of cell suspension containing 1×10^5 cells were incubated for 15 minutes at 4° C. with 10 μg per mL (1:100 dilution) of FITC-labelled GS1B4 in PBS. Rabbit red blood cells (A) were used for comparison,
# As very few cells were available for flow cytometry analysis the exact cell concentration was not determined. Instead, the amount of cells used was estimated to 0.4×10^5. The cells were incubated for 15 minutes at 4° C. with 4 μg per mL of FITC-labelled GS1B4 in PBS. Rabbit red blood cells (B) were used for comparison.
# Mean and median cell fluorescence intensity was determined by flow cytometry.
# B16.BL6 melanoma cells [2] = assay: Flow cytometry with FITC-labelled GS1B4 (Example 14)
# Procedure: Radioactive labelled and regular trisaccharide probe was dissolved in HBSS containing D-glucose (without Mg^2+ and Ca^2+) (Gibco Invitrogen, Taastrup, Denmark) and passed through sterile filters (0.2 μm Supor® Acrodisc® 13, Gelman Sciences, Ann Arbor, Mich.). Four different concentrations of each “Glycom conjugate” (25 mg, 5 mg, 1 mg and 0.1 mg) were made. Twelve flasks (150 cm^2) (TPP, Trasadingen Switzerland) were prepared each containing a total of 10×10^6 B16.BL6 cells. The trisaccharide probe was added and the total volume was adjusted to 20 mL with HBSS containing D-glucose (without Mg^2+ and Ca^2+). The cells were incubated with the “Glycom conjugate” for 1.5 hours at 37° C. After conjugation, the supernatant from each flask was transferred to separate 50 mL tubes (TPP, Trasadingen Switzerland). The cells were harvested with Cell Dissociation Solution C5914 (5 mL per flask) (Sigma-Aldrich, Saint Louis, Mo. and transferred to the 50 mL tubes containing the supernatant. The cells were centrifuged for 3 minutes at 300 G at 20° C. and resuspended in 5 mL of PBS (without Mg^2+ and Ca^2+). This was repeated 3 times before cell concentration and viability was determined by microscopical evaluation of trypan blue stained cell samples.
# Cells conjugated with regular trisaccharide probe were analysed by flow cytometry. Four hundred μl of each cell suspension containing 2×10^5 cells were incubated for 15 minutes at 4° C. with 10 μg per mL of FITC-labelled GS1B4. Mean fluorescence intensity of cells stained with GS1B4 was measured by flow cytometry.
# B16.BL6 melanoma cells [3] = assay: Flow cytometry with FITC-labelled GS1B4 (Example 15); conditions: all conjugation reactions, 10 μg-20 mg regular probe
# Procedure: Radioactive labelled and regular alpha-Gal trisaccharide-carbamate (9) probe (labeled on the cyclic carbamate carbon) was dissolved in HBSS containing D-glucose (without Mg^2+ and Ca^2+) (Gibco Invitrogen, Taastrup, Denmark) and passed through sterile filters (0.2 μm Supor® Acrodisc® 13, Gelman Sciences, Ann Arbor, Mich.). Eight different concentrations of radioactive labelled alpha-Gal trisaccharide-carbamate (9) (1 μg, 10 μg, 100 μg, 1 mg, 5 mg, 10 mg, 15 mg and 20 mg) and […] concentrations of regular “Glycom conjugate” (10 μg, 100 μg, 1 mg, 5 mg, 10 mg, 15 mg and 20 mg) were used. Twelve flasks (300 cm^2) (TPP, Trasadingen Switzerland) were prepared, each containing 10×10^6 B16.BL6 cells, for conjugation with the radioactive labelled trisaccharide probe, and 8 flasks (150 cm^2) (TPP, Trasadingen Switzerland) were prepared, each containing 5×10^6 B16.BL6 cells, for conjugation with the non-radioactive conjugate. […] This was repeated 3 times before cell concentration and viability was determined by microscopic evaluation of trypan blue stained cell samples.
# Cells conjugated with regular trisaccharide probe were analysed by flow cytometry. […] Mean fluorescence intensity of cells stained with GS1B4 was measured by flow cytometry.
# [4] = reaction 1, 19.2 mg, 3 hours, 10 μg per mL FITC-GS1B4
# [5] = reaction 2, 19.2 mg, 1.5 hours, group of 35.3% of the cells
# [6] = reaction 2, 19.2 mg, 1.5 hours, group of 62.7% of the cells
# [7] = reaction 4, 58 mg, 1.5 hours, group of 15.65% of the cells
# [8] = reaction 4, 58 mg, 1.5 hours, group of 84.26% of the cells
smiles,measurement,setting,value
"O=C1N[C@@H]2O[C@H](CO)[C@@H](O[C@@H]3O[C@H](CO)[C@H](O)[C@H](O[C@H]4O[C@H](CO)[C@H](O)[C@H](O)[C@H]4O)[C@H]3O)[C@H](O)[C@H]2O1 [Compound 9, alpha-Gal trisaccharide-carbamate]","Galα1,3Gal epitopes detected by binding of FITC-labelled GS1B4, flow cytometry","B16.BL6 melanoma cells [1]; all conjugation reactions (1.9-58 mg, 1.5 or 3 hours)",found on B16.BL6 cells from all conjugation reactions
same,Mean fluorescence intensity,B16.BL6 melanoma cells [1]; [4],197.8
same,Median fluorescence intensity,B16.BL6 melanoma cells [1]; [4],155.4
same,Share of the cells in the group of higher fluorescence intensity,"B16.BL6 melanoma cells [1]; reaction 2, 19.2 mg, 1.5 hours",2 (35.3% of the cells)**
same,Share of the cells in the group of lower fluorescence intensity,"B16.BL6 melanoma cells [1]; reaction 2, 19.2 mg, 1.5 hours",2 (62.7% of the cells)**
same,Mean fluorescence intensity,B16.BL6 melanoma cells [1]; [5],2940.2
same,Median fluorescence intensity,B16.BL6 melanoma cells [1]; [5],2196.8
same,Mean fluorescence intensity,B16.BL6 melanoma cells [1]; [6],161.63
same,Median fluorescence intensity,B16.BL6 melanoma cells [1]; [6],125.2
same,Mean fluorescence intensity,"B16.BL6 melanoma cells [1]; reaction 3, 1.9 mg, 1.5 hours",167.8
same,Median fluorescence intensity,"B16.BL6 melanoma cells [1]; reaction 3, 1.9 mg, 1.5 hours",66.4
same,Share of the cells in the group of higher fluorescence intensity,"B16.BL6 melanoma cells [1]; reaction 4, 58 mg, 1.5 hours",4 (15.65% of the cells)
same,Share of the cells in the group of lower fluorescence intensity,"B16.BL6 melanoma cells [1]; reaction 4, 58 mg, 1.5 hours",4 (84.26% of the cells)
same,Mean fluorescence intensity,B16.BL6 melanoma cells [1]; [7],770.0
same,Median fluorescence intensity,B16.BL6 melanoma cells [1]; [7],504.8
same,Mean fluorescence intensity,B16.BL6 melanoma cells [1]; [8],49.2
same,Median fluorescence intensity,B16.BL6 melanoma cells [1]; [8],44.1
same,Cells marked with GS1B4,B16.BL6 melanoma cells [2]; 0.1 mg conjugate added,17.64%
same,Mean fluorescence intensity of cells marked with GS1B4,B16.BL6 melanoma cells [2]; 0.1 mg conjugate added,1025.86
same,Cells marked with GS1B4,B16.BL6 melanoma cells [2]; 1 mg conjugate added,2.36%
same,Mean fluorescence intensity of cells marked with GS1B4,B16.BL6 melanoma cells [2]; 1 mg conjugate added,342.05
same,Cells marked with GS1B4,B16.BL6 melanoma cells [2]; 5 mg conjugate added,14.56%
same,Mean fluorescence intensity of cells marked with GS1B4,B16.BL6 melanoma cells [2]; 5 mg conjugate added,1719.58
same,Cells marked with GS1B4,B16.BL6 melanoma cells [2]; 25 mg conjugate added,31.86%
same,Mean fluorescence intensity of cells marked with GS1B4,B16.BL6 melanoma cells [2]; 25 mg conjugate added,2460.67
same,Binding of FITC-labelled GS1B4 to conjugated cells,B16.BL6 melanoma cells [2]; 0.1-25 mg regular trisaccharide probe,only a fraction of the conjugated cells bound detectable amounts of FITC-labelled GS1B4
same,Binding of FITC-labelled GS1B4 to cells,B16.BL6 melanoma cells [3],no binding above background levels
